Measured values as given in patent publication US20060135461A1, “Reduction of hair growth” (priority 2004, published 2006).
Where a name gives a salt, the structure may show the parent alone. Read-outs that look alike come from different tables or passages of the source.

Tests used:
human hair follicles = assay: Human Hair Follicle Growth Assay; type: cell-based; settings: for Length Increase (mm): follicle length day 6 minus day 0
From the text: Human Hair Follicle Growth Assay
Human skin was obtained from a plastic surgeon as a by-product of face-lift procedures. The skin samples generally consisted of haired and non-haired regions taken from the area of the face. Immediately after removal, the skin was placed in Williams E medium containing antibiotics, and kept refrigerated. The Williams E medium was commercially obtained (Life Technologies, Gaithersburg, Md.), and has been formulated with essential nutrients for maintaining viability of hair follicle in an in-vitro environment.
Human hair follicles in growth phase (anagen) were isolated from face-lift tissue under a dissecting scope using a scalpel and watchmakers forceps. The skin was sliced into thin strips exposing 2-3 rows of follicles that could readily be dissected. Follicles were placed into 0.5 ml Williams E medium supplemented with 2 mM L-glutamine, 10 ug/ml insulin, 10 ng/ml hydrocortisone, 100 units penicillin, 0.1 mg/ml streptomycin and 0.25 μg/ml amphotericin B. The follicles were incubated in 24 well plates (1 follicle/well) at 37° C. in an atmosphere of 5% CO2 and 95% air. Hair follicle images were taken in the 24-well plates under the dissecting scope under a power of 20×. Hair follicle lengths were measured on day 0 (day follicles were placed in culture) and again on day 6-7. In this system follicles appear to fully differentiate into a hair fiber and increase in length at a rate similar to the human, in vivo, rate of about 0.3 mm/day. For testing survivin inhibitors, the inhibitor was included in the culture medium from time 0 and remained in the medium throughout the course of the experiment.

flank organ hair growth = assay: Golden Syrian Hamster Assay; type: in vivo; settings: for % Inhibition: hair mass vs vehicle side; for Treated Side: hair mass
From the text: Golden Syrian Hamster Assay
Male intact Golden Syrian hamsters are considered acceptable models for human beard hair growth in that they display oval shaped flank organs, one on each side, each about 8 mm. in major diameter. These organs produce fine light colored hair typical of the animal pelage found on the body. In response to androgens the flank organs produce dark coarse hair similar to male human beard hair. To evaluate the effectiveness of a composition, the flank organs of each of a group of hamsters are depilated by applying a thioglycolate-based chemical depilatory (Surgex) and/or shaved. To one organ of each animal 10 μl of vehicle alone once a day is applied, while to the other organ of each animal an equal amount of vehicle containing a survivin inhibitor. After thirteen applications (one application per day for five days a week), the flank organs are shaved and the amount of recovered hair (hair mass) from each is weighed. For certain experiments, where indicated, the treatment period was for less than 13 applications. The reduced treatment period allowed for determination of onset in activity. Percent-reduction of hair growth is calculated by subtracting the hair mass (mg) value of the test compound treated side from the hair mass value of the vehicle treated side; the delta value obtained is then divided by the hair mass value of the vehicle treated side, and the resultant number is multiplied by 100. Visual evaluations comparing hair regrowth between the drug treated and the vehicle control site were made generally on day-8, day-15 and on day-19. These observations provide an identification of onset in activity (and thus efficacy).

survivin = assay: Determination of Hair Follicle Survivin Protein Content by ELISA; type: cell-based, human; settings: for Survivin Protein: human hair follicles in vitro, normalized to total protein; for Inhibition: survivin protein level
Method: Determination of Hair Follicle Survivin Protein Content by ELISA (Enzyme-Linked Immunosorbent Assay)
For protein extraction, 5-micron cryosections of the hair follicles were collected into the centrifuge tubes, followed by short time incubation with the lysis buffer (BD Bioscience; CA; Cat #K 1848-1). The solutions were centrifuged for 30 minutes at 14,000×g at 4° C., and the supernatants were frozen and stored at −80° C. For quantification of survivin protein, a commercially available ELISA kit was used, following the manufacturer's instructions (Assay Design Inc; Michigan; Cat # 900-111). Total protein concentration in the extracts was determined by using the bicinchoninic acid (BCA) protein assay (Pierce Chemical Company, Rockford; Cat #23225). The readings of optical density were performed, using EL340 Bio Kinetics microplate reader (Bio-Tek Instruments Inc). The survivin levels (in pg/ml) were normalized against the total amount of protein (in ug/ml) extracted from hair follicles.

[1] = 5% topical, vehicle 20% propylene glycol in ethanol
[2] = 10% topical, vehicle 10% DMSO in ethanol, water, emerest, and propylene glycol

With CC(Cc1ccc(OC(=O)CN(C)C)c(OC(=O)CN(C)C)c1)C(C)Cc1ccc(OC(=O)CN(C)C)c(OC(=O)CN(C)C)c1 [G4N, meso-1,4-bis[(3,4-dimethylaminoacetoxy)phenyl]-(2R,3S)-dimethylbutane hydrochloride salt] the “Length Increase (mm)” value (human hair follicles; G4N 20 uM in culture medium) was 1.19 ± 0.11 mm, the “Length Increase (mm)” value (human hair follicles; G4N 50 uM in culture medium) was 0.61 ± 0.14 mm and the inhibition at 20 µM (human hair follicles; Homo sapiens, 144 h, 20 uM, hair growth vs control, day 6, read-out: % Inhibition) was 30%. The inhibition at 50 µM (human hair follicles; Homo sapiens, 144 h, 50 uM, hair growth vs control, day 6) was 64%, the “% Inhibition” value (flank organ hair growth; [1]) was 48 ± 6% and the “Treated Side” value (flank organ hair growth; [1]) was 1.17 ± 0.2 mg.

In the case of CC[C@H](CO)Nc1nc(NCc2ccccc2)c2ncn(C(C)C)c2n1 [Roscovitine, (R)-2-[[9-(1-methylethyl)-6-[(phenylmethyl)amino]-9H-purin-2-yl]amino]-1-butanol], the “Length Increase in mm” value (human hair follicles; 10 uM Roscovitine in culture medium) is reported as 0.97 ± 0.13 mm, the “Length Increase in mm” value (human hair follicles; 15 uM Roscovitine in culture medium) is reported as 0.5 ± 0.1 mm and the “Length Increase in mm” value (human hair follicles; 20 uM Roscovitine in culture medium) is reported as 0.05 ± 0.05 mm. The inhibition at 10 µM (human hair follicles; Homo sapiens, 10 uM Roscovitine vs control) was 42%, the inhibition at 15 µM (human hair follicles; Homo sapiens, 15 uM Roscovitine vs control) was 60% and the inhibition at 20 µM (human hair follicles; Homo sapiens, 20 uM Roscovitine vs control, read-out: Hair Growth Inhibition) was 80%. For the same molecule, the “Survivin Protein” value (survivin; 15 uM Roscovitine) was 0.03 pg/mg, the “Survivin Protein” value (survivin; 20 uM Roscovitine) was 0.007 pg/mg and the Inhibition (survivin; 15 uM Roscovitine vs control) was 62%. The Inhibition (survivin; 20 uM Roscovitine vs control) was 95%.

COc1cc([C@H]2Oc3cc([C@H]4Oc5cc(O)cc(O)c5C(=O)[C@@H]4O)ccc3O[C@@H]2CO)ccc1O [Silibinin, (2R,3R)-2-[(2R,3R)-2,3-dihydro-3-(4-hydroxy-3-methoxyphenyl)-2-(hydroxymethyl)-1,4-benzodioxin-6-yl]-2,3-dihydro-3,5,7-trihydroxy-4H-1-benzopyran-4-one] was tested, and the “% Inhibition” value (flank organ hair growth; [2]) was 62.1 + 5.5% and the “Treated Side” value (flank organ hair growth; [2]) was 0.77 ± .14 mg.
